Results as given in patent US10149809B2, “Skin aging inhibitor and concentrate of resveratrol 3-O-α-glucoside” (priority 2014, dated 2018).
Values after ≈ are worked out from the molar mass of the structure shown.

Columns and labels:
Solubility in water = type: physicochemical; details: water
Experimental: (§1) Approximately 5 mg each of resveratrol 3-O-α-glucoside, resveratrol (Tokyo Chemical Industry Co., Ltd.), and resveratrol 3-O-β-glucoside (Tokyo Chemical Industry Co., Ltd.) was weighed, approximately 1 mL of water was added thereto, and the mixture was soaked in a water bath at 25° C. under light-tight conditions, and incubated for 20 hours with occasional stirring. After 20 hours, each of the samples was filtered through a 0.45 μm centrifugal filter, and then the concentration of each of the components in the filtrate was analyzed using HPLC under the same conditions as those described in Production Example 1 above. The dissolved concentration (w/v %) in water at 25° C. was thus determined.

[1] = Storage stability in 30 vol % aqueous ethanol (coloration, residual content); type: physicochemical; details: 2 mM in 30 vol % aqueous ethanol, 40° C., light-tight, 6 months; for Residual Content (%): HPLC
Experimental: Each of resveratrol 3-O-α-glucoside (produced in Production Example 1), resveratrol (Tokyo Chemical Industry Co., Ltd.), and resveratrol 4′-O-α-glucoside (produced in Production Example 1) was dissolved in a 30 vol % aqueous solution of ethanol to a concentration of 2 mM, and the solution was stored at 40° C. under light-tight conditions. The coloration of the solution after being stored for 6 months was visually observed. Further, absorbances at 430 nm of the solution before and after the storage were measured, and the residual amount of each of the components in the solution was analyzed using HPLC. HPLC was performed under the same conditions as those described in Production Example 1.

[2] = test system: skin model (MEL-312B; MatTek); test: Melanogenesis suppressing effect in skin model (amount of melanin, visual observation); type: cell-based; details: 0.2 wt % in PBS, 50 μL, 16 days; PBS control group = 100%
Experimental: Resveratrol 3-O-α-glucoside, resveratrol (Tokyo Chemical Industry Co., Ltd.), or resveratrol 3-O-β-glucoside (Tokyo Chemical Industry Co., Ltd.) was prepared into a 0.2 wt % solution or suspension with the addition of PBS, and the resulting solution or suspension was used as a test substance. A skin model (MEL-312B; MatTek) was used, and 50 μL of the test substance was added to the horny layer side of the skin model and cultured in a special medium (EPI-100NMM-113; MatTek) at 37° C. for 16 days. On days 2, 4, 7, 9, 11, and 14, the medium and the test substance were replaced with fresh ones. As a control group, the same operation was performed using PBS instead of the test substance.
After 16 days of culture, the skin model was visually observed, and the amount of melanin in the skin model was evaluated. The amount of melanin was measured using the following method. Initially, the collected skin model was subjected to enzymatic degradation by proteinase-K, and was subsequently homogenated in PBS containing 1% triton X-100. Melanin was then extracted by washing with 10% TCA and ethanol. Next, the extracted melanin was dissolved in 0.5 mL of 1N-NaOH containing 10% DMSO at 80° C. for 2 hours, and the amount of melanin was quantified by measuring absorbance at 470 nm.
Resveratrol 3-O-α-glucoside was prepared into a 0.2 wt % solution, a 0.1 wt % solution, or a 0.01 wt % solution with the addition of PBS. The resulting solution was used as a test substance, and the melanogenesis suppressing effect was evaluated using the same method as that of Example 1 above. […]

[3] = test system: skin model (EPI-200X; MatTek); type: in vitro ADME, human; details: human, 20 h, 0.2 wt %
Experimental: Using a three-dimensional human skin model, permeabilities of resveratrol 3-O-α-glucoside and resveratrol into the skin model when administered via the skin surface were compared.
Resveratrol 3-O-α-glucoside or resveratrol (Tokyo Chemical Industry Co., Ltd.) was prepared into a 0.2 wt % solution or suspension with the addition of PBS, and the resulting solution was used as a test substance. The skin model (EPI-200X; MatTek) was loaded into a special fixture (EPI-100-FIX; MatTek), and placed in the 6-well plate of the receiver. One-hundred microliters of the test substance were added to the horny layer side, and 5 mL of PBS was added to the receiver side. After being allowed to stand at 37° C. for 20 hours, the skin model was collected, and the surface of the skin model was washed well with PBS. The skin model after being washed was homogenized in PBS. After the homogenate was centrifuged, resveratrols in the supernatant were quantified using HPLC under the same conditions as described in Production Example 1 above, and the amount of resveratrols was converted into the equivalent of agly cones.

[4] = Solubility in solvent containing dipropylene glycol; type: physicochemical; details: 25 °C, water, thermodynamic from solid
Experimental: as §1, with “Approximately 40” for “Approximately 5”, “approximately 70 mg” for “approximately 1 mL”, “of a solvent (whose composition is shown in Table 18) containing ethanol (Wako Pure Chemical Industries, Ltd.)” for “of water”, “for 15” for “for 20”, “After 15” for “After 20”, “%)” for “%) in water”
The solubility of resveratrol 3-O-α-glucoside was evaluated under the same conditions as those described in Example 18 above, except that a solvent (whose composition is shown in Table 22) containing dipropylene glycol (Asahi Glass Co., Ltd.) was used.

Row | Concentration in the Skin Model (Value Converted into the Equivalent of Aglycones, μg/cm^2) [3] | solubility thermodynamic at 15 h [4] | solubility thermodynamic at 20 h (Solubility in water; 25 °C, thermodynamic from solid) | Compound | Dissolved Concentration (μg/mL) in Water (Solubility in water; 25° C., 20 hours) | Coloration: Difference between Absorbances at 430 nm (Δ A 430) before and after Storage [1] | Coloration: Visual Observation [1] | Residual Content (%) [1] | Relative Amount of Melanin [2]
1 |  |  |  | OC[C@H]1O[C@H](Oc2ccc(C=Cc3cc(O)cc(O)c3)cc2)[C@H](O)[C@@H](O)[C@@H]1O [Resveratrol 4′-O-α-Glucoside, resveratrol 4′-O-α-glucoside] | 150 µg/mL | 0.21 | slightly colored | 86% | 
2 | 7.5 μg/cm^2 | 30 µg/mL (≈ 131 µM) | 30 µg/mL (≈ 131 µM) | Oc1ccc(C=Cc2cc(O)cc(O)c2)cc1 [Resveratrol, resveratrol] |  | 1.36 | strongly | 60% | 63%
